“Also recorded” adds a separate entry of the source.
What was measured:
[1] = tested on: Pneumocystis carinii; test: Anti-P. carinii activity in immunosuppressed rat model (lung cyst counts); format: in vivo, Sprague-Dawley rats; conditions: for % saline, ORAL DOSING: oral by gavage daily for 14 days @33 μmol/kg body weight; for % saline, IV DOSING: tail vein injection daily for 14 days at 22 mg/kg body weight; for anti-P. carinii activity when given orally (in words): Formula I series, orally by gavage once daily for 14 days; for activity on oral administration, furan series (in words): orally by gavage
Method: The activity of the compounds of Formula I against P. carinii was carried out according to an established method. See Tidwell, R. R., et al., J. Protozool. […] Agents Chemother. […] Agents Chemother. […] Briefly, male Sprague-Dawley rats (barrier raised, not certified virus-free) weighing 150-200 g each, were obtained (Hilltop Laboratories, Scottsdale, Pa.). Immediately upon arrival, the animals were caged individually and begun on a low protein (8%) diet and on drinking water containing tetracycline (0.5 mg/mL) and dexamethasone (1.0 μ/mL). This regimen was continued for eight weeks. At the beginning of the seventh week, animals were divided into groups of 8 or more, and the test compounds were administered for 14 days. Saline and pentamidine-treated groups were included as controls.
Animals were sacrificed at the end of the eighth week by chloroform inhalation. The left lung was weighed, ground through a No. 60 wire mesh screen, and suspended 1:10 (wt/vol) in 10 mM β-mercaptoethanol-Hanks' balanced salts solution (HBSS) without cations. Slides were prepared by spotting 5 μL of lung homogenate diluted 1:10 in HBSS with β-mercaptoethanol and allowed to air dry. The slides were stained with cresyl violet, and the cysts were counted by a blinded protocol. The number of cysts per gram of original lung tissue was calculated, and the groups were reported as the percentages of saline-treated controls.
The anti-P. carinii value for each compound is expressed as the percent of cysts in the treatment group as compared to the saline control group. Values are also compared to a positive control group consisting of animals treated intravenously with pentamidine.

[2] = Acute toxicity of single doses in normal rats; format: in vivo; conditions: normal rats; for time after injection to recovery / persistence of symptoms: single IV 20 μmol/kg; for relative acute toxicity among the diamidines: single IV injection
[3] = tested on: Pneumocystis carinii; conditions: cited from earlier work; for mean histological score, IV DOSING: tail vein injection daily for 14 days @ 10 mg/kg, scores range from 0.5 (low infection) to 4.0; for intravenous activity of diamidines (in words): previously evaluated by a different score method
[4] = tested on: BRL 3A hepatocytes; test: Metabolism in intact cultured cells (HPLC of culture supernatants); format: in vitro ADME; conditions: 10 μM substrate, 24 hours, 37EC; extracellular medium assayed; FIG. 4
Method: Metabolic experiments with intact cultured cells were performed using the BRL 3A hepatocyte line, obtained from the UNC-Chapel Hill Lineberger Tissue Culture Facility. Cells were routinely cultured in Costar (Cambridge, Mass.) 25 cm^2 of tissue culture flasks at 37EC under moist 5% CO2 and 95% air in Ham's F-12 medium (Gibco, Gaithersburg, Md.) containing 5% fetal bovine serum (HyClone Laboratories Inc., Logan, Utah). Confluent cultures were treated with 0.25% trypsin solution (Sigma Chemical Co., ST. Louis Mo.), then approximately 2×10^5 cells/well subcultured into Costar 6-well tissue culture chambers and the cells allowed to grow to confluency. Ten mL fresh medium was added to each culture well and incubations were started by adding 100 μL amidoxime solution (prepared in sterile water) to a final concentration of 10 μM. Cell cultures were incubated at 37EC under moist 5% CO2 and 95% air for 24 hours, then aliquots of culture supernatants extracted and assayed for metabolites as described below. Similar metabolic experiments were performed with cultured J774 A.1 mouse monocyte-macrophage cells cultured in DMEM F-12 medium containing 10% fetal bovine serum and H9c2 rat heart myoblast cells cultured in DMEM H medium containing 10% fetal bovine serum.
(§1) Samples were extracted using solid phase extraction and assayed using high performance liquid chromatography (HPLC) by methods similar to those previously described in Berger et al. (1992) and Berger et al., (1991), supra. Briefly, samples spiked with 2,5-bis[4-(N-isopropylamidino)phenyl]furan dihydrochloride as the internal standard (IS) were extracted over activated C18 Bond Elut cartridges (Varian Associates, Sunnydale, Calif.), washed with water, 100% acetonitrile, then eluted with 75% acetonitrile/25% water containing 15 mm triethylamine and 35 mM acetic acid. The diamidoxime substrates elute in the 100% acetonitrile phase, while mono-amidine and diamidine products elute in the acetonitrile/water mixture containing triethylamine and acetic acid. Elutes were evaporated to dryness at 40EC under a gentle stream of nitrogen and resuspended in HPLC grade water.
Compounds were resolved using a Hewlett-Packard (Avondale, Pa.) model 1090 HPLC equipped with a HP 1050 variable wavelength detector set at 265 nm, a 4.6×250 mm Zorbax RX diisopropyl C8 column (Mac-Mod, Chadd's Ford, PA) maintained at 40EC and a Vectra 486/66U computer with HP Chemstations software. […] Quantities of metabolites formed were calculated, using peak area rations of authentic standard, from standard addition curves generated by spiking standards into tissue homogenates or tissue culture medium.

[5] = In vitro metabolism by rat tissue homogenate 9000×g supernatants (HPLC); format: in vitro ADME; conditions: 167 μM substrate plus cofactor solution, 37EC, 10 minutes; FIG. 1
Method: In vitro metabolism of diamidoximes 1, 3, 5, and 7 by rat liver homogenate 9000×g supernatants, post-mitochondrial 105,000×g supernatants or microsomal fractions were performed as previously described in B. J. Berger et al., Antimicrob. Agents and Chemotherapy 36, 1825-1831 (1992); B. J. Berger et al., J. Pharmacol. Experimental Therapeutics 256, 883-89 (1991). Briefly, adult male Sprague-Dawley rats, barrier raised, (Hilltop Laboratories, Scottsdale, Pa.) animals were given water and rat chow (Agway, Syracuse, N.Y.) ad libitum. The rats were euthanized by decapitation, the livers removed immediately, rinsed with 50 mM potassium phosphate buffer, pH 7.4, and placed on ice. All subsequent steps were performed at 4EC. The livers were minced, homogenized, and 9000×g supernatants, 105,000×g or 105,000×g microsomal pellets prepared. Each fraction was assayed for protein content as described in M. M. Bradford, Anal. Biochem. 72, 248-254 (1976) and stored at −80EC. Fractions from the rat kidneys, lungs, hearts and brains were prepared similarly.
Reaction mixtures consisted of 1.5 mL 50 mM potassium phosphate buffer, pH 7.4, 0.5 mL cofactor solution (2 mg/mL NADPH, 1.6 mg/mL MgCl2, 1.04 mg/mL glucose-6-phosphate and 2 units/mL glucose-6-phosphate dehydrogenase in 50 mM potassium phosphate buffer pH 7.4), 0.5 mL tissue homogenate and 0.5 mL of the appropriate diamidoxime substrate at a concentration of 167 μM. Reactions were started by adding substrate, then mixtures were incubated at 37EC in a shaking water bath for times shown in the figures. Reactions were terminated by extracting over C18 cartridges and assaying as described below.
as §1
Compounds were resolved using a Hewlett-Packard (Avondale, Pa.) model 1090 HPLC equipped with a HP 1050 variable wavelength detector set at 265 nm, a 4.6×250 mm Zorbax RX diisopropyl C8 column (Mac-Mod, Chadd's Ford, PA) maintained at 40EC and a Vectra 486/66U computer with HP Chemstations software. The mobile phase consisted of 15 mM triethylamine and 35 mM acetic acid in HPLC grade water for pump A, and 15 mM triethylamine and 35 mM acetic acid in 75% acetonitrile in water for pump B. The solvent flow rate was 1.5 mL/min, and the solvent gradient ran from 0% B to 25% B at 22 min, to 40% B at 25 min, then 90% B at 35 min. All solvents and reagents used for the assays were HPLC grade. Quantities of metabolites formed were calculated, using peak area rations of authentic standard, from standard addition curves generated by spiking standards into tissue homogenates or tissue culture medium.

[6] = Subjective scale of toxicity and tolerance during treatment in the immunosuppressed rat model; conditions: for Toxicity, IV DOSING / Toxicity, ORAL DOSING: subjective scale; for acute toxicity generally noted for diamidines, on intravenous administration: immunosuppressed rat model
Excerpt: ^b subjective scale of toxicity. […] In general, the larger the value the more severe the toxicity, with values greater than 2 indicating the death of some animals

[7] = 22.0 μmol/kg/day, values greater than 2 indicate death of some animals

## N=C(N)c1ccc(OCCCCCOc2ccc(C(=N)N)cc2)cc1 [Compound 2, 1,5-bis(4′-amidinophenoxy)pentane, reference compound]
[1]; Table 2
  % saline, ORAL DOSING: 133.09 % saline
  % saline, IV DOSING: 0.87 % saline
[1]; Table 3
  % saline, ORAL DOSING: 133.09 % saline
[2]; 20 μmol/kg
  observed acute toxicity after single intravenous injection: appeared hypotensive, with rapid paling of extremities, hypoactivity and dyspnea, which progressed to slight cyanosis of extremities
[2]; 40 μmol/kg
  observed acute toxicity after single intravenous injection: immediate sever hind limb contractions, increased salivation, dyspnea, initial paling of extremities which progressed to marked cyanosis and profound hypoactivity
[2]
  time after injection to recovery / persistence of symptoms: ≤ 5 min
[3]
  mean histological score, IV DOSING: 1.1

## NC(=NO)c1ccc(OCCCCOc2ccc(C(N)=NO)cc2)cc1.O=C(O)/C=C\C(=O)O.O=C(O)/C=C\C(=O)O [Compound 3, 1,4-bis(4′-(N-hydroxyamidino)phenoxy)butanedi-maleinate]
[1]; Formula I amidoximes, intravenous
  anti-P. carinii activity / mean cyst counts when given intravenously (in words): significantly reduced compared to saline controls
[1]
  anti-P. carinii activity when given orally (in words): most active
[1]; Table 2
  % saline, ORAL DOSING: 1.43 % saline
  % saline, IV DOSING: 0.12 % saline
[4]
  metabolism in intact BRL 3A hepatocytes: metabolized predominantly to the corresponding diamidine
[5]
  metabolism by rat liver homogenate 9000×g supernatants: metabolized similarly

## N=C(N)c1ccc(OCCCCOc2ccc(C(=N)N)cc2)cc1 [Compound 4, 1,4-bis(4′-amidinophenoxy)butane, reference compound]
[1]
  anti-P. carinii activity when given orally (in words): reduced or no anti-P. carinii activity
[1]; Table 3
  % saline, ORAL DOSING: 46.03 % saline
[3]
  intravenous activity of diamidines (in words): previously shown to have intravenous activity
  mean histological score, IV DOSING: 0.5

## N=C(N)c1ccc(OCCCOc2ccc(C(=N)N)cc2)cc1 [Compound 6, 1,3-bis(4′-amidinophenoxy)propane]
[1]
  anti-P. carinii activity when given orally (in words): reduced or no anti-P. carinii activity
[2]
  relative acute toxicity among the diamidines: less acutely toxic than pentamidine
[3]
  intravenous activity of diamidines (in words): previously shown to have intravenous activity
  mean histological score, IV DOSING: 0.9

## COc1cc(C(=N)N)ccc1OCCCOc1ccc(C(=N)N)cc1OC [Compound 8, 1,3-bis(2′-methoxy-4′-amidinophenoxy)propane, reference compound]
[1]
  anti-P. carinii activity when given orally (in words): significant oral activity
[2]; 10 μmol/kg
  observed acute toxicity after single intravenous injection: perceptible hypoactivity
[2]
  time after injection to recovery / persistence of symptoms: > 15 min
  relative acute toxicity among the diamidines: even more acutely toxic than the other two diamidines tested
[3]
  intravenous activity of diamidines (in words): previously shown to have intravenous activity

## NC(=NO)c1ccc(-c2ccc(-c3ccc(C(N)=NO)cc3)o2)cc1 [Compound 10, 2,5-bis-[4-amidinophenyl]furanbis-amidoxime]
[1]; immunosuppressed rat model
  activity on oral administration, furan series (in words): effective
[1]; rat, in vivo, po
  drug uptake on oral dosage (suggested by the values for the cyst counts): superior to that of the parent compound 9
[6]; 0.3 μmol/kg/day
  Toxicity, IV DOSING: 0
[6]; 2.7 μmol/kg/day
  Toxicity, IV DOSING: 0
[6]; 5.5 μmol/kg/day
  Toxicity, IV DOSING: +1
  Toxicity, ORAL DOSING: 0
[6]; 11.0 μmol/kg/day
  Toxicity, IV DOSING: +1
  Toxicity, ORAL DOSING: 0
[6]; [7]
  Toxicity, IV DOSING: +1
[6]; intravenous, 5.5 μmol/day
  inflammation and necrosis at the injection site: considerable inflammation and necrosis of the tail vein at the injection site
[6]; intravenous
  acute toxicity generally noted for diamidines, on intravenous administration: absent
[6]; 33.0 μmol/kg/day
  Toxicity, ORAL DOSING: 0

## CON=C(N)c1ccc(-c2ccc(-c3ccc(C(N)=NOC)cc3)o2)cc1 [Compound 11, 2,5-bis-[4-amidinophenyl]furanbis-O-methylamidoxime]
[1]; immunosuppressed rat model
  activity on oral administration, furan series (in words): effective; also recorded: more effective than the bis-amidoxime 10
[1]; oral dosage, immunosuppressed rat model
  drug uptake on oral dosage (suggested by the values for the cyst counts): superior to that of the parent compound 9
[6]; [7]
  Toxicity, IV DOSING: 0
[6]; intravenous, 22.0 μmol/kg/day
  tolerance at the injection site: well-tolerated
[6]; intravenous
  acute toxicity generally noted for diamidines, on intravenous administration: absent
[6]; 5.5 μmol/kg/day
  Toxicity, ORAL DOSING: 0
[6]; 11.0 μmol/kg/day
  Toxicity, ORAL DOSING: 0
[6]; 22.0 μmol/kg/day
  Toxicity, ORAL DOSING: 0
[6]; 33.0 μmol/kg/day
  Toxicity, ORAL DOSING: 0

## CCON=C(N)c1ccc(-c2ccc(-c3ccc(C(N)=NOCC)cc3)o2)cc1 [Compound 12, 2,5-bis-[4-amidinophenyl]furanbis-O-ethylamidoxime]
[6]; [7]
  Toxicity, IV DOSING: +1
[6]; 33.0 μmol/kg/day
  Toxicity, ORAL DOSING: 0

From patent publication US6423737B1, “Benzamidoxime prodrugs as antipneumocystic agents” (The University of North Carolina at Chapel Hill, priority 1995, dated 2002)
